Read-outs that look alike come from different tables or passages of the source.
How the values were obtained:
Calu-3 cells = experiment: MTT antiproliferative assay, Calu-3; format: cell-based; settings: Homo sapiens, lung cancer
Procedure: (§1) The stock solutions of tested compounds were diluted with culture medium. […] Then, the cells were treated with compound sample at various concentrations for 48 h. Afterward, […] working solution (5 mg/ml) was added to each well and incubated for another 4 h. After incubation, the […] formed from MTT was extracted by adding DMSO (200 µl). The optical density (OD) at 490 nm and 630 nm were measured by Universal Microplate Spectrophotometer. […] The IC50 values were calculated with Origin 7.5 software (Originlab Corporation, Northampton, MA), and standard deviations of the IC50 values were obtained through at least 3 independent experiments.

HDAC6 = HDAC6 (Homo sapiens, UniProt Q9UBN7); experiment: In vitro HDACs inhibitory assay, recombinant HDAC6
Procedure: (§2) All of the HDAC enzymes were purchased from BPS Bioscience (San Diego, CA). Briefly, 20 μl of HeLa nucleus extract or recombinant HDAC enzyme solution was mixed with various concentrations of tested compound (20 μl). The mixture was incubated at 30 °C for 1 h (for the time-dependent assay, the mixture was incubated for 15, 30, 60, and 90 min, respectively), then 10 μl of fluorogenic substrate (Boc-Lys (acetyl)-AMC (3 mM) for HDAC1, 2, 3, and 6, Boc-Lys (trifluoroacetyl)-AMC (3 mM) for HDAC 4, 7, 8, and 9) was added. After incubation at 30 °C for 2 h, the catalytic reaction was stopped by addition of 10 μl of developer containing trypsin and trichostatin A (TSA). After 30 min, fluorescence intensity was measured using a microplate reader at excitation and emission wavelengths of 360 and 460 nm, respectively. The inhibition ratios were calculated from the fluorescence intensity readings of tested wells relative to those of control wells, and the IC50 curves and values were determined by GraphPad Prism 6.0 software (La Jolla, CA).

K562 cells = experiment: MTT antiproliferative assay, K562; format: cell-based; settings: Homo sapiens, leukemia
Procedure: as §1

A2780 cells = experiment: MTT antiproliferative assay, A2780; format: cell-based; settings: for IC50: Homo sapiens
Procedure: The stock solutions of tested compounds were diluted with culture medium. Briefly, the cells were seeded into each well of 96-well plate, which were incubated at 37 °C, 5% CO2 until confluency 90–95%. Then, the cells were treated with compound sample at various concentrations for 48 h. Afterward, […] working solution (5 mg/ml) was added to each well and incubated for another 4 h. After incubation, the […] formed from MTT was extracted by adding DMSO (200 µl). The optical density (OD) at 490 nm and 630 nm were measured by Universal Microplate Spectrophotometer. […] The IC50 values were calculated with Origin 7.5 software (Originlab Corporation, Northampton, MA), and standard deviations of the IC50 values were obtained through at least 3 independent experiments.
A series of tumour cell lines including the lung cancer A549, Calu-3, SPC-A-1, H322, H1299, breast cancer MDA-MB-231, MCF-7, MDA-MB-468, colon carcinoma LoVo, Colo205, ovarian cancer A2780, SKOV3, gastric cancer MKN45, pancreatic cancer PNAC-1, leukemic K562, and multiple myeloma OPM2 cells were cultured for the antiproliferative assay of active compound I13. In the present study, molecule I13 could inhibit the growth of both solid and haematologic tumour cell lines (Table 4). […]. The antiproliferative activity of molecule I13 was considered to be restricted by the poor enzyme inhibitory selectivity. Enhancement of selectivity could be a useful strategy to improve the anticancer activity of this group of HDACIs.

PNAC-1 cells = experiment: MTT antiproliferative assay, PNAC-1; format: cell-based
Procedure: as §1

U266 cells = experiment: MTT antiproliferative assay, U266
Procedure: (§3) The stock solutions of tested compounds were diluted with culture medium. […] Then, the cells were treated with compound sample at various concentrations for 48 h. Afterward, 20 MTT working solution (5 mg/ml) was added to each well and incubated for another 4 h. After incubation, the medium formed from MTT was extracted by adding DMSO (200 µl). The optical density (OD) at 490 nm and 630 nm were measured by Universal Microplate Spectrophotometer. […] The IC50 values were calculated with Origin 7.5 software (Originlab Corporation, Northampton, MA), and standard deviations of the IC50 values were obtained through at least 3 independent experiments.
To evaluate the antiproliferative activity of hydroxamic acid containing molecules, MTT assays were performed using U937, U266, and HepG2 cell lines.

HDAC9 = HDAC9 (Homo sapiens, UniProt Q9UKV0); experiment: In vitro HDACs inhibitory assay, recombinant HDAC9
Procedure: as §2

[1] = system: HDACs (HeLa nucleus extract containing a mixture of HDAC isoforms); experiment: HDAC inhibitory assay with HeLa nucleus extract; settings: at the concentration of 1 µM
SPC-A-1 cells = experiment: MTT antiproliferative assay, SPC-A-1; format: cell-based; settings: SPCA1, lung cancer
Procedure: as §1

HepG2 cells [2] = experiment: Annexin V/PI cell apoptosis assay (flow cytometry); settings: annexin V-FITC/PI
Procedure: After 10 min of incubation, 1 µl PI was added to each sample and mixed gently. After incubation at room temperature for another 20 min in the dark, cells were subjected to flow cytometer (CytoFLEX, Beckman Coulter, Brea, CA).

MKN45 cells = experiment: MTT antiproliferative assay, MKN45; format: cell-based; settings: Homo sapiens, MKN-45, gastric cancer
Procedure: as §1

LoVo cells = experiment: MTT antiproliferative assay, LoVo; format: cell-based; settings: Homo sapiens, colon carcinoma
Procedure: as §1

H1299 cells = experiment: MTT antiproliferative assay, H1299; format: cell-based; settings: Homo sapiens, NCI-H1299, lung cancer
Procedure: as §1

Water solubility = format: physicochemical
HepG2 cells [3] = experiment: MTT antiproliferative assay, HepG2
Procedure: as §3

Colo205 cells = experiment: MTT antiproliferative assay, Colo205; format: cell-based; settings: Homo sapiens, COLO 205, colon carcinoma
Procedure: as §1

HepG2 xenograft = settings: for mean weight of tumours: n = 7
MDA-MB-231 cells = experiment: MTT antiproliferative assay, MDA-MB-231; format: cell-based; settings: Homo sapiens, breast carcinoma
Procedure: as §1

H322 cells = experiment: MTT antiproliferative assay, H322; format: cell-based; settings: NCI-H322, lung cancer
Procedure: as §1

HDAC4 = HDAC4 (Homo sapiens, UniProt P56524); experiment: In vitro HDACs inhibitory assay, recombinant HDAC4
Procedure: as §2

MDA-MB-468 cells = experiment: MTT antiproliferative assay, MDA-MB-468; format: cell-based; settings: Homo sapiens, breast carcinoma
Procedure: as §1

HDAC8 = HDAC8 (Homo sapiens, UniProt Q9BY41); experiment: In vitro HDACs inhibitory assay, recombinant HDAC8
Procedure: as §2

HDAC1 = HDAC1 (Homo sapiens, UniProt Q13547); experiment: In vitro HDACs inhibitory assay, recombinant HDAC1
Procedure: as §2

HDAC3 = HDAC3 (Homo sapiens, UniProt O15379); experiment: In vitro HDACs inhibitory assay, recombinant HDAC3
Procedure: as §2

OPM2 cells = experiment: MTT antiproliferative assay, OPM2; format: cell-based; settings: Homo sapiens, OPM-2, multiple myeloma
Procedure: as §1

U937 cells = experiment: MTT antiproliferative assay, U937; settings: Homo sapiens, U-937, 48 h, read-out: U937 IC50
Procedure: as §3

HDAC2 = HDAC2 (Homo sapiens, UniProt Q92769); experiment: In vitro HDACs inhibitory assay, recombinant HDAC2
Procedure: as §2

A549 cells = experiment: MTT antiproliferative assay, A549; format: cell-based; settings: Homo sapiens, lung cancer
Procedure: as §1

SKOV3 cells = experiment: MTT antiproliferative assay, SKOV3; format: cell-based; settings: Homo sapiens, SK-OV-3, ovarian cancer
Procedure: as §1

MCF-7 cells = experiment: MTT antiproliferative assay, MCF-7; format: cell-based; settings: Homo sapiens, MCF7, breast carcinoma
Procedure: as §1

HDAC7 = HDAC7 (Homo sapiens, UniProt Q8WUI4); experiment: In vitro HDACs inhibitory assay, recombinant HDAC7
Procedure: as §2

[4] = 50 mg/kg/d intragastric, 16 days, HepG2 xenograft

Chain of HDAC8 (Q9BY41 whole entry): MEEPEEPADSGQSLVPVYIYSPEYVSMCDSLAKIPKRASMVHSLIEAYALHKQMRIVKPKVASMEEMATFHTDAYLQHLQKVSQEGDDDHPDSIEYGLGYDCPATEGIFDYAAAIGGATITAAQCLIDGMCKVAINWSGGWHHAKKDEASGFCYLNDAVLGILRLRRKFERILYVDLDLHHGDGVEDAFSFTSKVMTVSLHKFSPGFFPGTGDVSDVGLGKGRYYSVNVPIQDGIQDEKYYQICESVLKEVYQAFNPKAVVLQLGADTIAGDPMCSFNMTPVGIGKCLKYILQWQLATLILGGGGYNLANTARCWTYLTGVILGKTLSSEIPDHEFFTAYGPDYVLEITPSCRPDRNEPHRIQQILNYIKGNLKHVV
Chain of HDAC9 (Q9UKV0 whole entry, canonical isoform): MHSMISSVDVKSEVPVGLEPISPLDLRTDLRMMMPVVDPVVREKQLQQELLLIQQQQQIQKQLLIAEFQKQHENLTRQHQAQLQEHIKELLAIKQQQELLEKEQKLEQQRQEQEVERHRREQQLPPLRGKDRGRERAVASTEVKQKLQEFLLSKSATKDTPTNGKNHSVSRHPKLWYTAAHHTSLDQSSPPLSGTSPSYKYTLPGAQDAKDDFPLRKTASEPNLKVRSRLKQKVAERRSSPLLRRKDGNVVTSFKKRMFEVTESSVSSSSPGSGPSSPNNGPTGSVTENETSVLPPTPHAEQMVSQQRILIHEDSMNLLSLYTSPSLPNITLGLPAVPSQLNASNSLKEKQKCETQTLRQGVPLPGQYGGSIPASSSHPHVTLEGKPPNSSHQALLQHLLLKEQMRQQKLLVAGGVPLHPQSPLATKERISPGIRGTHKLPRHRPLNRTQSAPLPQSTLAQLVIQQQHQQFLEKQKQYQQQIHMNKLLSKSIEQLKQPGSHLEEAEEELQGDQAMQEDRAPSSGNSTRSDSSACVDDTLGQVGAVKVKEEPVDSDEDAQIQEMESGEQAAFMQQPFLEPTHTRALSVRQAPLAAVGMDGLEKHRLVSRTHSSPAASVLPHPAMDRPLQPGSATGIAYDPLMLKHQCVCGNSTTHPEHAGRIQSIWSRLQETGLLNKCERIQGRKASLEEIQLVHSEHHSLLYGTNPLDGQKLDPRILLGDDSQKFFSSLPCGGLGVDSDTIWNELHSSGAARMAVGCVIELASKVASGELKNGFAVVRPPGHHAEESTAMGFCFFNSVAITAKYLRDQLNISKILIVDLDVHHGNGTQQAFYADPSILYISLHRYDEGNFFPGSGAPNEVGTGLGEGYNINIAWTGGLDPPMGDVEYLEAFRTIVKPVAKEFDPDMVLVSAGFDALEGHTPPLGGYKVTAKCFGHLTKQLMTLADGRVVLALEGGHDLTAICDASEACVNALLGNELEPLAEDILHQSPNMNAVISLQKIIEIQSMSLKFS
Chain of HDAC1 (Q13547 whole entry): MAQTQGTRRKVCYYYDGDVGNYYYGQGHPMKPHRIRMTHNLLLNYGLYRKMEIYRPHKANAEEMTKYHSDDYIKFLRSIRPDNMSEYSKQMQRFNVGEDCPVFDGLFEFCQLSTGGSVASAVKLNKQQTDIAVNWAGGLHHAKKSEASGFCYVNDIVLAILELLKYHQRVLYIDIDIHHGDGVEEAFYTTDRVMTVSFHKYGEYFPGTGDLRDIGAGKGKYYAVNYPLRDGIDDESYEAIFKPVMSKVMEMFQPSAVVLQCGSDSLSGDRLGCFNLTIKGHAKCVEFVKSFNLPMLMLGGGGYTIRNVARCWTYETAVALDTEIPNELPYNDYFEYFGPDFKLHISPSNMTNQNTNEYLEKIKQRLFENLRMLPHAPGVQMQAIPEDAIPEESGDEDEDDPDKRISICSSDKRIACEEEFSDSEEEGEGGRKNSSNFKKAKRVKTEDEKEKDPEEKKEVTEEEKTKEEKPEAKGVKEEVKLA
Chain of HDAC2 (Q92769 whole entry): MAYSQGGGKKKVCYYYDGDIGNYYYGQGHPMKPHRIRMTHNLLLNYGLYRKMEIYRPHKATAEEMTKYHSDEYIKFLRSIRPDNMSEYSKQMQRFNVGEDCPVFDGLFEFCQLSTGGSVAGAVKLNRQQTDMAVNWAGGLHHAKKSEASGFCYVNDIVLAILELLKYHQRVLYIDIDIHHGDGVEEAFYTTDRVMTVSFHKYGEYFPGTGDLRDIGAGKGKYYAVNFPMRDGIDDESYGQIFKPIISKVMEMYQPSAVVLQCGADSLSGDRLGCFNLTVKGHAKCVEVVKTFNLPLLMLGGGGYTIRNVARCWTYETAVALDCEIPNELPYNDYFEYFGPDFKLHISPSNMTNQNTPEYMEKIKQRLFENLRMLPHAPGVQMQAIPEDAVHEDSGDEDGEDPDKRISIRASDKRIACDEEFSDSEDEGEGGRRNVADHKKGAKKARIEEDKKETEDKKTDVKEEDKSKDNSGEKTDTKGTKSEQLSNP
Chain of HDAC7 (Q8WUI4 whole entry): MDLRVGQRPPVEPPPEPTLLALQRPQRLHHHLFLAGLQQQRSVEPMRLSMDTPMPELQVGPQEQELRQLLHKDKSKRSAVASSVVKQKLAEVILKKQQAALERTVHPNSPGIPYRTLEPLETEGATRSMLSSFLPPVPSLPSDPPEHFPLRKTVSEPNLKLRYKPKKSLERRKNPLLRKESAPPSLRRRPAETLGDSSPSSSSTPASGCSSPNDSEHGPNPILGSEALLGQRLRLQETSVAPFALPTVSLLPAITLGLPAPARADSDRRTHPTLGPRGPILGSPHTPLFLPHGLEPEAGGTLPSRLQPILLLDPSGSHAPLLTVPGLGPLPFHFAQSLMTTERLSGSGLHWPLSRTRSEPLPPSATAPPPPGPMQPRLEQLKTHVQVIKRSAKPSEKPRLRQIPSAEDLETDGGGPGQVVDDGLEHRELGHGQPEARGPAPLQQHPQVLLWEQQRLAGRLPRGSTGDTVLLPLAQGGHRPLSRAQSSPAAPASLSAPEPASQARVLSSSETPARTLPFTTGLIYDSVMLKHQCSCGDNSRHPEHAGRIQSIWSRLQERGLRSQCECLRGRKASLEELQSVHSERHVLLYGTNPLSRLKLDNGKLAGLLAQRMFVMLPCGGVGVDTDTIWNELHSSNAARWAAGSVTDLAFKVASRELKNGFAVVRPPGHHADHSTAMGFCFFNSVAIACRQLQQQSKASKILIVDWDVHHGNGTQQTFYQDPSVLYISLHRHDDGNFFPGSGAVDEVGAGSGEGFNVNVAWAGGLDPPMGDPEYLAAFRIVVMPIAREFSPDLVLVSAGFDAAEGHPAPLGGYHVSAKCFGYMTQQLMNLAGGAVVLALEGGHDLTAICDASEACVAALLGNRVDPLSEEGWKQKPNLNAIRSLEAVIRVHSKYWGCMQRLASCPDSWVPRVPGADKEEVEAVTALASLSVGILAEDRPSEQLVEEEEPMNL
Chain of HDAC3 (O15379 whole entry): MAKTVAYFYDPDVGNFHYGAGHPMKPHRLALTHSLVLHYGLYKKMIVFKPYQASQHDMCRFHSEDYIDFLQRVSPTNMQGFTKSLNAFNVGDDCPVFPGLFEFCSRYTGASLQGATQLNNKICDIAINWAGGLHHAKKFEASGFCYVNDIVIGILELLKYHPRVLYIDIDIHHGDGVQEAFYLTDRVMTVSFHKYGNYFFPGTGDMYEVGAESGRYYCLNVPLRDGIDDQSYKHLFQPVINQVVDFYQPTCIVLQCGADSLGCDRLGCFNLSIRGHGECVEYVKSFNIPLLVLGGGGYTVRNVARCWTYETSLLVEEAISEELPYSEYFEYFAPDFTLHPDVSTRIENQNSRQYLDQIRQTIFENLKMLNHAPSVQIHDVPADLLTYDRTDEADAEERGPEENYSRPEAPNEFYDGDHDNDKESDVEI
Chain of HDAC3 (Q9Y618 395-489 partner limits assumed): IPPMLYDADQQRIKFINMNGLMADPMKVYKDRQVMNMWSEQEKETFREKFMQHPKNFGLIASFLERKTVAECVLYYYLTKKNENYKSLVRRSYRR
Chain of HDAC4 (P56524 whole entry): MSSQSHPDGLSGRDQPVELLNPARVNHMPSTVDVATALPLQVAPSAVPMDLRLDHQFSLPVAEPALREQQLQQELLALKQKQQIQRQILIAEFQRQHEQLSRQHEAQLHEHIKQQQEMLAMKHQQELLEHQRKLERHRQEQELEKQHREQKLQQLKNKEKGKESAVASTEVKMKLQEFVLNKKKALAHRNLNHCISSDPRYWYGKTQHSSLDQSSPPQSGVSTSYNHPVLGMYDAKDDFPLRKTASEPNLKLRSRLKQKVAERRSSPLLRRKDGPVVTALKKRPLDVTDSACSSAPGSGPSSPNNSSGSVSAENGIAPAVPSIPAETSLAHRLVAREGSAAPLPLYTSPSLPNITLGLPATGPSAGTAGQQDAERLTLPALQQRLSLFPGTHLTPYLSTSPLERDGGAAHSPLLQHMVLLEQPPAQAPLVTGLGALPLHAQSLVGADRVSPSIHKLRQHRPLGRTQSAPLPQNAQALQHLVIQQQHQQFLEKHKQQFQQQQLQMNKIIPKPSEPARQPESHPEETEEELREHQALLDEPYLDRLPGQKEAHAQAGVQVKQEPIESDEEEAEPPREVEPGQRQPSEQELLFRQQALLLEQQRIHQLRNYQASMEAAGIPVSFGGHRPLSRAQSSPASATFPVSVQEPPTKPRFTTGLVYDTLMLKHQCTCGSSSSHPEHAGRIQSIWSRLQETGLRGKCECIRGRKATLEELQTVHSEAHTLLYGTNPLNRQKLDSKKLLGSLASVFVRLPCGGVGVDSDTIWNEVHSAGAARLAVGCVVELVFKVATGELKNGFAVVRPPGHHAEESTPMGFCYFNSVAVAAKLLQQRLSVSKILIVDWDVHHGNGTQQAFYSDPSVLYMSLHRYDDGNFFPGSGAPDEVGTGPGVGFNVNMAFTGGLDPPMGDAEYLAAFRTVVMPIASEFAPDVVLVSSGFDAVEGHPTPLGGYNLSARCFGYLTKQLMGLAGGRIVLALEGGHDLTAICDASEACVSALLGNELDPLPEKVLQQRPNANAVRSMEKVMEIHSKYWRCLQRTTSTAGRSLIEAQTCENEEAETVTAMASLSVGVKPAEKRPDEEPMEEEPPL

Cn1cc(CCCC(=O)Nc2ccc(C(=O)NO)cc2)c2ccccc21 [Compound I13, 4-(4-(1-Methyl-1H-indol-3-yl)butanamido)-N-hydroxybenzamide]
IC50 (Calu-3 cells): 1260 nM | IC50 (HDAC6): 7.71 nM | IC50 (K562 cells): 2870 nM | IC50 (A2780 cells; A2780, ovarian cancer, MTT, read-out: A2780 IC50): 4600 nM | fold more active than SAHA, A2780 cells (A2780 cells; ratio of IC50 values): 5.9 fold | IC50 (PNAC-1 cells; pancreatic cancer, MTT): 1170 nM | fold more active than SAHA, PNAC-1 cells (PNAC-1 cells; ratio of IC50 values): 5.6 fold | IC50 (U266 cells; Homo sapiens, U-266, 48 h, read-out: U266 IC50): 160 ± 40 nM | fold more active than SAHA, U266 cells (U266 cells; ratio of IC50 values): 5.5 fold | IC50 (HDAC9): > 5000 nM | HDACs, percentage inhibition rate (PIR) [1]: 82.19 ± 1.60% | IC50 (SPC-A-1 cells): 810 nM | ratio of apoptotic cells (HepG2 cells [2]; HepG2, 0.2 µM, 24 h): 11.56% | flow cytometry quadrant Q1-LL (HepG2 cells [2]; HepG2, 0.2 μM): 88.42% | flow cytometry quadrant Q1-LR (HepG2 cells [2]; HepG2, 0.2 μM): 6.12% | flow cytometry quadrant Q1-UL (HepG2 cells [2]; HepG2, 0.2 μM): 0.02% | flow cytometry quadrant Q1-UR (HepG2 cells [2]; HepG2, 0.2 μM): 5.44% | flow cytometry quadrant Q1-LL (HepG2 cells [2]; HepG2, 0.8 μM): 67.38% | flow cytometry quadrant Q1-LR (HepG2 cells [2]; HepG2, 0.8 μM): 21.27% | flow cytometry quadrant Q1-UL (HepG2 cells [2]; HepG2, 0.8 μM): 0.07% | flow cytometry quadrant Q1-UR (HepG2 cells [2]; HepG2, 0.8 μM): 11.28% | IC50 (MKN45 cells): 18200 nM | IC50 (LoVo cells): 2190 nM | IC50 (H1299 cells): 7670 nM | water solubility (Water solubility): good water solubility | IC50 (HepG2 cells [3]; Homo sapiens, HepG2, 48 h, read-out: HepG2 IC50): 1850 ± 310 nM | fold more active than SAHA, HepG2 cells (HepG2 cells [3]; ratio of IC50 values): 4.7 fold | IC50 (Colo205 cells): 2420 nM | toxic signs in liver and spleen (HepG2 xenograft; 50 mg/kg/d intragastric, 16 days): no obvious toxic signs in liver and spleen were detected | tumour inhibitory ratio (HepG2 xenograft; [4]): 33.1% | mean weight of tumours (HepG2 xenograft; [4]): 0.303 g | mice body weight loss (HepG2 xenograft; mouse, in vivo): No evidence of mice body weight (measured every two days) loss | IC50 (MDA-MB-231 cells): 780 nM | IC50 (H322 cells): 14900 nM | IC50 (HDAC4): > 5000 nM | IC50 (MDA-MB-468 cells): 1340 nM | IC50 (HDAC8): 284 nM | IC50 (HDAC1): 13.9 nM | IC50 (HDAC3): 12.1 nM | IC50 (OPM2 cells): 230 nM | IC50 (U937 cells): 930 ± 80 nM | IC50 (HDAC2): 49.9 nM | IC50 (A549 cells): 3150 nM | IC50 (SKOV3 cells): 1440 nM | IC50 (MCF-7 cells): 6340 nM | IC50 (HDAC7): 326 nM

O=C(CCCCCCC(=O)Nc1ccccc1)NO [SAHA, Suberoylanilide hydroxamic acid, reference compound]
IC50 (A2780 cells; A2780, read-out: A2780 IC50): 27300 nM | flow cytometry quadrant Q1-LL (HepG2 cells [2]; HepG2, 0.2 μM): 88.86% | flow cytometry quadrant Q1-LR (HepG2 cells [2]; HepG2, 0.2 μM): 5.30% | flow cytometry quadrant Q1-UL (HepG2 cells [2]; HepG2, 0.2 μM): 0.05% | flow cytometry quadrant Q1-UR (HepG2 cells [2]; HepG2, 0.2 μM): 5.79% | flow cytometry quadrant Q1-LL (HepG2 cells [2]; HepG2, 0.8 μM): 86.03% | flow cytometry quadrant Q1-LR (HepG2 cells [2]; HepG2, 0.8 μM): 7.73% | flow cytometry quadrant Q1-UL (HepG2 cells [2]; HepG2, 0.8 μM): 0.01% | flow cytometry quadrant Q1-UR (HepG2 cells [2]; HepG2, 0.8 μM): 6.23% | mean weight of tumours (HepG2 xenograft; 100 mg/kg/d intragastric, 16 days, HepG2 xenograft): 0.322 g
